In US20260138961A1, “MODULATORS OF MITOCHONDRIAL DNA REPLICATION” (Pretzel Therapeutics, Inc., priority 2022, published 2026) one finds AC50 data, which are given here for ten compounds.

Bounds are passed on as bounds.

In the assay the target is T1, POLγA:A467T (Homo sapiens, UniProt P54098, A467T).
T1 sequence (P54098 1-1239 A467T): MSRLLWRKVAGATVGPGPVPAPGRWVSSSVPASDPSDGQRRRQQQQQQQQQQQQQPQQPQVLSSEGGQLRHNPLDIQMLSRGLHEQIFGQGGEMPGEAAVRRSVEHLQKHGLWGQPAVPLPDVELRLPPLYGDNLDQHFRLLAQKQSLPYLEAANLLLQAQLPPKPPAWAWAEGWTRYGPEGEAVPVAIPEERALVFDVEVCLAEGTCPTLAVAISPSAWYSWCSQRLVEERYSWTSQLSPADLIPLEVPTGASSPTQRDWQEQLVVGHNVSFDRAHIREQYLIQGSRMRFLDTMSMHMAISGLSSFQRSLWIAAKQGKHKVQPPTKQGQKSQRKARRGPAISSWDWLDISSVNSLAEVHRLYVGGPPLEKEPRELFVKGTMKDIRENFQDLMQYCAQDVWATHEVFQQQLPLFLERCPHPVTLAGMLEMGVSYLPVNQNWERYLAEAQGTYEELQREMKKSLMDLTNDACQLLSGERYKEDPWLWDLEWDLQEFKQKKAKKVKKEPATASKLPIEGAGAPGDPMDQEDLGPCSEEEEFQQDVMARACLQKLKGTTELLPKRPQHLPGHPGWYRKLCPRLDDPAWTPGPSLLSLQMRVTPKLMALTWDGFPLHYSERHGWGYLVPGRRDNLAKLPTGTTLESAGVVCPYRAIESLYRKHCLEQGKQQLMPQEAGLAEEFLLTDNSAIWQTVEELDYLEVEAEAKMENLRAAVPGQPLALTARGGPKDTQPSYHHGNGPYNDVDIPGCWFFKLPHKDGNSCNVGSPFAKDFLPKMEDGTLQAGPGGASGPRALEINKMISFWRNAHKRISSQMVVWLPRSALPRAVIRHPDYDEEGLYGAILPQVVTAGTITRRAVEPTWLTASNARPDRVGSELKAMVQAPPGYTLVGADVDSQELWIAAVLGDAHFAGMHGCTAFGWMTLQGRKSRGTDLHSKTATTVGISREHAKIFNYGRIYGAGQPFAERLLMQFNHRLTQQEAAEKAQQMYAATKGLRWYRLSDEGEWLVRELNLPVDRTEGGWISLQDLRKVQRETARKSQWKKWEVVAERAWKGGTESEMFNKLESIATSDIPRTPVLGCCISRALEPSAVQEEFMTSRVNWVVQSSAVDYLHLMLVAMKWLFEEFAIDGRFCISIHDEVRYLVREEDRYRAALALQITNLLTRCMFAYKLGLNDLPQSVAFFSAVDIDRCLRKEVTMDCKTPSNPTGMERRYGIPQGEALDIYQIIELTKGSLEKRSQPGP
T1 sequence (Q9UHN1 1-485 partner): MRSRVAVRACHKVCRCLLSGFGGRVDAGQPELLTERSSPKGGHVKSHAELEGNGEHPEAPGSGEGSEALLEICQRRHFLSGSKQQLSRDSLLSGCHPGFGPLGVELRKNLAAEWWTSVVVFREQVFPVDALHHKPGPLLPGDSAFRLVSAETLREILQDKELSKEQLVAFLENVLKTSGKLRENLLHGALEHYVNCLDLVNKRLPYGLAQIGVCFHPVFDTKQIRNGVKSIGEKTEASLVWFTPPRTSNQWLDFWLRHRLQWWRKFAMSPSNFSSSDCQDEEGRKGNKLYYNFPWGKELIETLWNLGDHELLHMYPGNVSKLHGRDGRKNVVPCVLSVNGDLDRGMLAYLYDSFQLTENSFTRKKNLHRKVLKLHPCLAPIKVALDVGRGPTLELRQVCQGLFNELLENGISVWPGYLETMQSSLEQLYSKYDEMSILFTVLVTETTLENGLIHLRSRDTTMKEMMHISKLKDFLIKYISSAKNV
The experiment in a line: DNA polymerization assay, POLγA:A467T mutant. As to conditions: stimulation of polymerase activity, primed M13mp18 ssDNA, 37° C. 2 hours; read-out: A467T AC50. The class given is biochemical.
Turning to `Cc1cc(S(=O)(=O)Nc2csc(-c3ccccc3)n2)c(F)cc1Cl` [Example 146, 4-chloro-2-fluoro-5-methyl-N-(2-phenylthiazol-4-yl)benzenesulfonamide], the AC50 was above 100 µM.

Turning to `O=S(=O)(Nc1csc(-c2ccccc2)n1)c1ccccc1` [Example 147, N-(2-phenylthiazol-4-yl)benzenesulfonamide], the AC50 was above 100 µM.

In the case of `Cc1cc(S(=O)(=O)Nc2csc(-c3ccccc3)n2)ccc1Cl` [Example 148, 4-chloro-3-methyl-N-(2-phenylthiazol-4-yl)benzenesulfonamide], the AC50 is above 100 µM.

With `Cc1cc(S(=O)(=O)N[C@@H]2CCCN(c3ccccc3)C2)c(C)cc1Cl` [Example 149, (R)-4-chloro-2,5-dimethyl-N-(1-phenylpiperidin-3-yl)benzenesulfonamide], the concentration at half-maximal activity (AC50) was above 100 µM.

Consider `Cc1cc(S(=O)(=O)N[C@@H]2CCCN(C(=O)c3ccccc3)C2)c(C)cc1Cl` [Example 150, (R)-N-(1-benzoylpiperidin-3-yl)-4-chloro-2,5-dimethylbenzenesulfonamide], for which the AC50 is above 100 µM.

Regarding `O=S(=O)(Nc1csc(-c2ccccc2)n1)c1cccc(C(F)(F)F)c1` [Example 151, N-(2-phenylthiazol-4-yl)-3-(trifluoromethyl)benzenesulfonamide], the AC50 is above 100 µM.

For the compound `O=S(=O)(Nc1csc(-c2ccccc2)n1)c1ccc2c(c1)CCO2` [Example 152, N-(2-phenylthiazol-4-yl)-2,3-dihydrobenzofuran-5-sulfonamide], the AC50 was above 100 µM.

For `Cc1cc(S(=O)(=O)N[C@@H]2CCCN(C(=O)N3CCCC3)C2)c(C)cc1Cl` [Example 153, (R)-4-chloro-2,5-dimethyl-N-(1-(pyrrolidine-1-carbonyl)piperidin-3-yl)benzenesulfonamide], the AC50 was above 100 µM.

On to `Cc1cc(S(=O)(=O)Nc2ccc3c(c2)CC(=O)N3)c(C)cc1Cl` [Example 185, 4-chloro-2,5-dimethyl-N-(2-oxoindolin-5-yl)benzenesulfonamide], for which the AC50 was 55 µM.

As to “(R)-2,5-dimethyl-N-(3-(3-methylmorpholine-4-carbonyl)phenyl)benzenesulfonamide [Example 1]”, the AC50 came out at 44 µM.
